According to paper PMC4429810, “Heat shock protein 90 inhibitors repurposed against Entamoeba histolytica” (Frontiers in Microbiology, 2015):
Where a name gives a salt, the structure may show the parent alone.

Target: T1, PfHsp90 ATP-binding domain (Plasmodium falciparum, UniProt Q8IC05)
T1 construct: gene PF3D7_0708400; from genomic DNA in pET28b, E. coli BL21(DE3); His tag said to be cut by TEV; pocket residues A38, N92, R98
Assay: bis-ANS fluorescence displacement screen
Settings: bis-ANS 5 μM, protein 1 μM, Tris pH 7.5, 10 mM MgCl2, 50 mM KCl, 37°C; competition with bis-ANS at ATP-binding domain

T1 sequence (Q8IC05 1-211): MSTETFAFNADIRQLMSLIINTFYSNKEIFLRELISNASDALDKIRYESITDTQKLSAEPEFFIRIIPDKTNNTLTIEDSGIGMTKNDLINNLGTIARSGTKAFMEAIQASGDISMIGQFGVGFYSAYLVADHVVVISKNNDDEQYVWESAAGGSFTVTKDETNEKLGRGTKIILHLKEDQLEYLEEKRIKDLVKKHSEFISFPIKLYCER

Compound | bis-ANS fluorescence displacement screen
CO[C@H]1/C=C/O[C@@]2(C)Oc3c(C)c(O)c4c(c3C2=O)C2=NC3(CCN(CC(C)C)CC3)NC2=C(NC(=O)/C(C)=C\C=C\[C@H](C)[C@H](O)[C@@H](C)[C@@H](O)[C@@H](C)[C@H](OC(C)=O)[C@@H]1C)C4=O [Rifabutin] | rifabutin showed the highest inhibition against PfHsp90

Target: T2, EhHsp90 ATP-binding domain (Entamoeba histolytica, UniProt C4MBP1)
T2 construct: gene EHI_102270; cloned from genomic DNA in pET28a, E. coli BL21(DE3); His tag said to be cut by TEV; pocket residues C49, C103, R109
T2 sequence (C4MBP1 1-215): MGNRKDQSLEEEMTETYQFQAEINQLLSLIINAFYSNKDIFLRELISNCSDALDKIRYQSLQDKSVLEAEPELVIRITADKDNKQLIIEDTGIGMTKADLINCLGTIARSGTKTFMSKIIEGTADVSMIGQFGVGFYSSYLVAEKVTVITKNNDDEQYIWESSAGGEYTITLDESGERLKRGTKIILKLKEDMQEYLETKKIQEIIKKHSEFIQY
Assay: bis-ANS fluorescence displacement screen
Settings: read-out: Percent inhibition of fluorescence in protein screen at 2.5 μM (%)
Excerpt: bis-ANS fluorescence displacement screen on EhHsp90 ATP-binding domain

Compound | inhibition at 2.5 µM [%]
C=CC1=C(C)/C(=C/c2[nH]c(Cc3[nH]c(/C=C4\NC(=O)C(C)=C4C=C)c(C)c3CCC(=O)O)c(CCC(=O)O)c2C)NC1=O [Bilirubin] | 73.7
C[n+]1cc2c3c(ccc2c2ccc4cc5c(cc4c21)OCO5)OCO3 [Sanguinarine sulfate] | 71.3
N#C/C(=C\c1ccc(O)c(O)c1)C(=O)c1ccc(O)c(O)c1 [Tyrphostin AG 538] | 75
CC[C@@]1(O)C[C@H](O[C@H]2C[C@H](N(C)C)[C@H](O)[C@H](C)O2)c2c(cc3c(c2O)C(=O)c2c(O)ccc(O)c2C3=O)[C@H]1C(=O)OC [Rutilantin] | 77.1
O=C1c2ccccc2C(=O)c2c(O)c(O)cc(O)c21 [Purpurin] | 75
O=C1c2c(O)ccc(O)c2C(=O)c2c(NCCNCCO)ccc(NCCNCCO)c21 [Mitoxantronedihydrochloride] | 95.3
CC(C)/N=c1\cc2n(-c3ccc(Cl)cc3)c3ccccc3nc-2cc1Nc1ccc(Cl)cc1 [Clofazimine] | 73.7
N=C1C=CC(=C(c2ccc(N)cc2)c2ccc(N)cc2)C=C1 [Pararosaniline pamoate] | 99
CN(C)c1ccc(C(=C2C=CC(=[N+](C)C)C=C2)c2ccccc2)cc1 [WB 64 (Malachite Green)] | 84.9
CN(C)c1ccc(C(=C2C=CC(=[N+](C)C)C=C2)c2ccc(N(C)C)cc2)cc1 [Gentian Violet] | 99.3
CCN(CC)Cc1cc(Nc2ccnc3cc(Cl)ccc23)ccc1O [Amodiaquindihydrochloride dihydrate] | 82.1
COc1cccc2c1C(=O)c1c(O)c3c(c(O)c1C2=O)C[C@@](O)(C(C)=O)C[C@@H]3O[C@H]1C[C@H](N)[C@H](O)[C@H](C)O1 [Daunorubicin hydrochloride] | 83.2
COc1ccc2cc3[n+](cc2c1OC)CCc1cc2c(cc1-3)OCO2 [Berberine chloride] | 78.3
O=C1Nc2ccc(I)cc2/C1=C/c1cc(Br)c(O)c(Br)c1 [GW5074] | 70.5
CCN(CC)CCNc1ccc(CO)c2sc3ccccc3c(=O)c12 [Hycanthone] | 90.9
CO[C@H]1/C=C/O[C@@]2(C)Oc3c(C)c(O)c4c(c3C2=O)C2=NC3(CCN(CC(C)C)CC3)NC2=C(NC(=O)/C(C)=C\C=C\[C@H](C)[C@H](O)[C@@H](C)[C@@H](O)[C@@H](C)[C@H](OC(C)=O)[C@@H]1C)C4=O [Rifabutin] | 73.7
